Data set [1] is described as follows: Stability of vitamin B12 during sterilization at different C0. The conditions noted are these: Batch 3 (5% lipid emulsion); C0=120 min. Format: physicochemical. As to the method:
Therefore, in a first step, exemplary glucose solutions and lipid emulsions each containing vitamin B12 were submitted to different amounts of C0 during the sterilization step to analyze the impact of C0 on the stability of vitamin B12. Several C0 values were targeted and a wide range, from 20 min to 120 min, was screened to understand the correlation between C0 and the degradation of vitamin B12 in different media. Bags of lipid emulsion were produced, wherein the 5% olive-based emulsion contained vitamin B12 (cyanocobalamin form) at a concentration of 1 dd in 25 mL and, in one case, EDTA in a concentration of 0.1% w/v of the final emulsion (see Table 6). […] The heat sensitivity of the vitamin was assessed through the analysis of the respective degradation profile. […]
The solutions were analyzed unsterilized and sterilized for each cycle. […]
Bags were then analyzed at the respective points in time to evaluate the impact on the degradation of vitamin B12. The quantitative determination of vitamin B12 in the form of cyano- and hydroxocobalamins was done by Ultra Performance Liquid Chromatography (UPLC), which separates components of a solution by partitioning of the analytes between a mobile liquid phase and a […] (reversed phase mode). […]

Data set [2] is described as follows: Vitamin B12 stability in mixed micelle solutions. Format: physicochemical. The conditions noted are these: both mixed micelle solutions (Vit A, Vit B); steam or water spray sterilization. As to the method: For testing the stability of vitamin B12 in formulation as they are typically used in parenteral nutrition, a 35% glucose solution, a 14.2% amino acid formulation such as found, for example, in Olimel N9E (Baxter), and a 20% lipid emulsion such as found in Clinoleic 20% (Baxter) were supplemented with different vitamin combinations which always included vitamin B12. KCl was added into the glucose solution to understand if it has an effect on the stability of vitamin B12. Vitamin B1 was introduced as thiamin HCl. Ascorbyl palmitate was added to the lipid emulsion formulation as a stabilizing agent due to its antioxidant properties. In addition, two separate micellar solutions (“Vit A” and “Vit B”, see Table 9) comprising certain vitamins to be assessed with regard to degradation (B3, B6, B8, B9, B12, C) but formulated with different excipients as micellization agents were tested for vitamin B12 stability. Vit A consisted of a solution of mixed micelles with ascorbyl palmitate as a potential stability enhancer. […]
Accordingly, mixed micelles solutions having smaller volumes (25 ml or 50 ml, see Table 9) were produced according to known methods. […] The mixed micelles solutions from Table 5 were then sterilized according to Cycles 1, 2, 3 and 4 as described before and the degradation of vitamin B12 during sterilization and subsequent storage was monitored as described before.

Data on 1 substance can be found in US12507721B2, “Ready-to-use parenteral nutrition formulation” (BAXTER INTERNATIONAL INC., priority 2021, dated 2025).

As for cobalamin [Batch B12], the “degradation of the total sum of vitamin B12” value in data set [1] is recorded as “about 35%”. Besides, the “degradation after sterilization and subsequent storage” value in data set [2] is reported as “almost complete degradation”.
